From PMC11374673, “Discovery of isoquinoline sulfonamides as allosteric gyrase inhibitors with activity against fluoroquinolone-resistant bacteria” (Nature Chemistry, 2024)
Where “and” joins values, the source holds several entries; their conditions need not be identical. Equal values may be shown once. Entries after “also recorded” stand apart in the source; their conditions may differ.

Legend:
sheep blood cells = test: Haemolytic activity; assay type: cell-based; settings: 20 h incubation with sheep blood cells
Procedure: Whole defibrinated sheep blood (10631715, Fisher Scientific) was centrifuged (400g) for 15 min at 4 °C. The supernatant was discarded and the remaining blood cell suspension was mixed with PBS and centrifuged (400g) for 15 min at 4 °C. Washing cycles were repeated at least three times, until the supernatant was clear after centrifugation. The packed blood cells were diluted 25-fold in PBS with 0.002% polysorbate 80. Test compounds were serially diluted twofold in U-bottom polypropylene 96-well microtitre plates in PBS with 0.002% polysorbate 80 (75 µl). An equal volume (75 µl) of the blood cell suspension was added to all wells. […]. The well plates were incubated for 20 h at 37 °C with continuous shaking (500 r.p.m.). After incubation, plates were centrifuged (800g) for 5 min, and 25 µl of supernatant was transferred to a clear UV-star flat-bottom polystyrene 96-well plate containing 100 µl ultrapure water per well. Absorption was measured at 415 nm with a Spark multimode microplate reader (Tecan). Data were corrected for the background response of 0.5% DMSO in the presence of cells with no antibiotic and normalized using the absorbance of 0.1% Triton X-100 with blood cells, as 100% haemolytic activity.

E. coli W3110 = test: Time-kill assay
Procedure: From glycerol stocks, bacterial strains were cultured on blood agar plates by overnight incubation at 37 °C. Subsequently, a single colony was cultured in TSB overnight at 37 °C. The culture was diluted 100-fold in fresh CAMHB and grown until early exponential phase (OD600 of 0.25) followed by 100-fold dilution in media. The culture was split in separate culture tubes containing 2 ml. […] The supernatant was discarded and pellets were washed once with filter-sterilized PBS, then resuspended in an equal volume of fresh buffer and samples were tenfold serially diluted until a 10^5 dilution. Then, 10 µl of the appropriate dilutions were inoculated on LB agar plates in technical duplicates, subsequently allowed to evaporate and incubated at 37 °C for 18 h. The colonies were counted and used to calculate the colony forming unit (c.f.u.) per ml remaining in the original culture by taking the dilution factors into account. The experiment was performed in biological duplicates.

P. aeruginosa gyrase = molecular target: T1, P. aeruginosa gyrase (Pseudomonas aeruginosa, UniProt P48372); test: Gyrase supercoiling inhibition; assay type: biochemical
T1 construct: purchased Inspiralis Ltd. PAG1001
Procedure: Of this stock solution, 27 µl was aliquoted for each reaction in 1.5 ml Eppendorf tubes and supplemented with 0.6 µl of the appropriate compound dilution or corresponding solvent with a final DMSO concentration of 2%. The reactions were started with 3 µl of enzyme (1 U for WT gyrase retrieved from Inspiralis Limited or 25–30 nM gyrase variants purified in house) in dilution buffer (50 mM Tris–HCl (pH 7.5), 100 mM KCl, 2 mM DTT, 1 mM EDTA and 50% (wt/vol) glycerol) for a final volume of 30 µl. Reactions were run at 37 °C for 30 min and stopped with the addition of 30 µl STEB buffer (40% (wt/vol) sucrose, 100 mM Tris–HCl pH 8, 100 mM EDTA, 0.5 mg ml^−1 bromophenol blue) and 30 µl of a chloroform:isoamyl alcohol solution (24:1 vol/vol). After brief vortexing and centrifugation at 2,300g for 1 min, 20 µl of the aqueous phase was loaded onto 1% (wt/vol) agarose gels in TAE (Tris–acetate […]) gel. The gels were run at 85 V for 2 h followed by staining (15 min) in 1 µg ml^−1 ethidium bromide and destaining (5–10 min) in water. DNA was visualized (602/50, UV Trans, auto optimal exposure) with a ChemiDoc MP (Bio-Rad Laboratories Inc., equipped with ImageLab Touch Software v2.0.0.27) and the percentage of supercoiled DNA relative to the total amount material per lane was determined with ImageLab 6.1 software (Bio-Rad Laboratories Inc.) or ImageJ[47] software. […]

E. coli gyrase = E. coli gyrase (Escherichia coli, UniProt P0AES4); test: Time course of CIP- and Ca2+-mediated DNA cleavage; assay type: biochemical; settings: 5 µM LEI-800
Procedure: Time courses of CIP- and Ca^2+-mediated DNA cleavage were performed based on a previously published protocol. E. coli gyrase (200 nM) was incubated at 25 °C in 360 µl reactions with assay buffer (35 mM Tris–HCl (pH 7.5), 24 mM KCl, 4 mM MgCl2, 2 mM DTT, 1.8 mM spermidine, 1 mM ATP, 6.5% (wt/vol) glycerol and 0.1 mg ml^−1 albumin) and 500 ng supercoiled pBR322 DNA (Inspiralis Ltd.). For CIP-induced cleavage, 5 µM […] into the master mix. For Ca^2+-induced cleavage, the assay buffer was supplemented with 5 mM CaCl2. […] At selected timepoints, 30 µl aliquots were withdrawn and stopped by an addition of 3 µl 2% SDS and 3 µl 100 mM EDTA. After the time course, aliquots were treated with proteinase K (0.5 mg ml^−1) for 30 min at 37 °C and extracted with 30 µ chloroform:isoamyl alcohol solution (24:1 vol/vol). The aqueous layers from the assays were mixed with 30 µl STEB and run on 1% agarose TAE gels with 10 µg ml^−1 ethidium bromide at 80 V. Gels were visualized and analysed as described for the supercoiling inhibition assays.

E. coli gyrase, sequence (P0AES4 whole entry): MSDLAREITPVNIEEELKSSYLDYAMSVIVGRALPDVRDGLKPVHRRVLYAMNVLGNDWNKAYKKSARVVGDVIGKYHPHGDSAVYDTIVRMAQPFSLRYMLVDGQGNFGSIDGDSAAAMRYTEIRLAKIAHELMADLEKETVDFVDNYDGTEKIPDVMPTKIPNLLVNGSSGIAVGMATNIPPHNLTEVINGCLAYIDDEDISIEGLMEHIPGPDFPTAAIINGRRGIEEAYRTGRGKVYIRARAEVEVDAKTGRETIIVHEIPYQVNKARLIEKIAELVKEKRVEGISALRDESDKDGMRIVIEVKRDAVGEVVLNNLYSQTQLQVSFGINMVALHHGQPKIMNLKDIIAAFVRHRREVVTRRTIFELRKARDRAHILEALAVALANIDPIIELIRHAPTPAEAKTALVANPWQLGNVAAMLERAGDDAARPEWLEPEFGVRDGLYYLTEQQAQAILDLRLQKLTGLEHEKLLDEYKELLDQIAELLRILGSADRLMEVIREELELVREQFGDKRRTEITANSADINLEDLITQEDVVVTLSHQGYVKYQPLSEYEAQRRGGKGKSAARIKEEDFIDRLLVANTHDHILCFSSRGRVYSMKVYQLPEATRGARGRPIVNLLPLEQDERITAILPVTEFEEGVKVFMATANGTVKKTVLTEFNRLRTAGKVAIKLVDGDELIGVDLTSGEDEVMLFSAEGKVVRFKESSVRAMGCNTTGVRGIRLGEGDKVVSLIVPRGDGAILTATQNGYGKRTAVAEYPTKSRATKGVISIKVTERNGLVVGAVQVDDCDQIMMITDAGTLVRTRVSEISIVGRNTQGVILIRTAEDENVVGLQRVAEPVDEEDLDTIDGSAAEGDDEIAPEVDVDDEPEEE
T1 sequence (P48372 whole entry): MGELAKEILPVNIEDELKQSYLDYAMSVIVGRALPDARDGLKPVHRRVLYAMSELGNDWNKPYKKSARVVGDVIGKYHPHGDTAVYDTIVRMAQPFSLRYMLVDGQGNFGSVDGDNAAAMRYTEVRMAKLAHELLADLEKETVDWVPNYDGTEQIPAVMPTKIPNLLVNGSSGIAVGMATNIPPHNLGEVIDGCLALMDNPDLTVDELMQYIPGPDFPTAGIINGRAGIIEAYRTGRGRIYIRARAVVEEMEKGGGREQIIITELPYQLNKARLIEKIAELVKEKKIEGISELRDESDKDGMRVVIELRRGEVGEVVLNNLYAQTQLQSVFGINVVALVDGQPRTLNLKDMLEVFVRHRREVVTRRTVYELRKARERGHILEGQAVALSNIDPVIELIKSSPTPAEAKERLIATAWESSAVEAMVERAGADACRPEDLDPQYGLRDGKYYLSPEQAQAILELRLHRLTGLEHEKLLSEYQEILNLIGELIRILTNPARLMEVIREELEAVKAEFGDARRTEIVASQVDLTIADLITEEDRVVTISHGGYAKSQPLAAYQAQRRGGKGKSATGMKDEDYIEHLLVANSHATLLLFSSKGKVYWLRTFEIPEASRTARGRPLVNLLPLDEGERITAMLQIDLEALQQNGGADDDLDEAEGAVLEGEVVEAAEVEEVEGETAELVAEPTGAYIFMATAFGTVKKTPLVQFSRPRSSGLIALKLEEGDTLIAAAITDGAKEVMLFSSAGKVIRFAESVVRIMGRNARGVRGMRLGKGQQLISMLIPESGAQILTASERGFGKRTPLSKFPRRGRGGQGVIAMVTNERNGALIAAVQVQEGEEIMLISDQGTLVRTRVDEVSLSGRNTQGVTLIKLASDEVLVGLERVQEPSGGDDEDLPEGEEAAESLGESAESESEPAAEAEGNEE
T1 sequence (Q9I7C2 whole entry, further chain): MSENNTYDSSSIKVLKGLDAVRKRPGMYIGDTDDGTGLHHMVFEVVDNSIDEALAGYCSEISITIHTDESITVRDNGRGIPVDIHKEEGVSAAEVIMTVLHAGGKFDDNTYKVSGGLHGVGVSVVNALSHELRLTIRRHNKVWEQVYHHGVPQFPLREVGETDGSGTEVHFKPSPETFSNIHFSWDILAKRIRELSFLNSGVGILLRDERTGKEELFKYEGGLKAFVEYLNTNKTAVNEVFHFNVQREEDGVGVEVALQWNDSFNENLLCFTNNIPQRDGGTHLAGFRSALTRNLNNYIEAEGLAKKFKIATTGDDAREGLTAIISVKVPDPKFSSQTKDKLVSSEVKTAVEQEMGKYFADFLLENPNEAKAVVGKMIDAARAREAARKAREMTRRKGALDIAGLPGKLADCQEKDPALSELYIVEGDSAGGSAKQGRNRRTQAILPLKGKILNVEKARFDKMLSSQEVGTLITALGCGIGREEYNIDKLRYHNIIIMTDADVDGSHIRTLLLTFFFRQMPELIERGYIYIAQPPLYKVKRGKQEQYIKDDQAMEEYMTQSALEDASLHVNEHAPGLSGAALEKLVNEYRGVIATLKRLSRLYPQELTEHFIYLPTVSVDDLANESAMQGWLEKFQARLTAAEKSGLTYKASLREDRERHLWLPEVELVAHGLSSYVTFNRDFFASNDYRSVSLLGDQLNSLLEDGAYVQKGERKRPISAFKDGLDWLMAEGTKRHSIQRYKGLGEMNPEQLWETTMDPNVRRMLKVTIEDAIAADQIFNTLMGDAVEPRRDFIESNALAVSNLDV

With `O=S(=O)(NC[C@@H]1CC[C@H](c2ccc(-c3cccnc3)cc2)N1)c1cccc2cnccc12` [LEI-800] the “haemolytic activity” value (sheep blood cells) was “no haemolytic activity”, the “time kill kinetics, bacterial count” value (E. coli W3110; 4xMIC, 0.5 h, n = 1 and n = 2) was 5.021 and 5.23 and the “time kill kinetics, bacterial count” value (E. coli W3110; 4xMIC, 1 h) was 5.061 and 4.929. The “time kill kinetics, bacterial count” value (E. coli W3110; 4xMIC, 2 h) was 5.041 and 5.176, the “time kill kinetics, bacterial count” value (E. coli W3110; 4xMIC, 4 h) was 3.061 and 3.243 and the “time kill kinetics, bacterial count” value (E. coli W3110; 4xMIC, 8 h) was 2 and 2.778. For the same compound, the “time kill kinetics, bacterial count” value (E. coli W3110; 4xMIC, 24 h) was 5.176 and 4.875, the “time kill kinetics, bacterial count” value (E. coli W3110; 8xMIC, 0.5 h) was 5.243 and 5.021 and the “time kill kinetics, bacterial count” value (E. coli W3110; 8xMIC, 1 h) was 4.431 and 4.732. For the same compound, the “time kill kinetics, bacterial count” value (E. coli W3110; 8xMIC, 2 h) was 4.903 and 5, the “time kill kinetics, bacterial count” value (E. coli W3110; 8xMIC, 4 h) was 3.13 and 3.079 and the “time kill kinetics, bacterial count” value (E. coli W3110; 8xMIC, 8 h) was 2.301 and 2. The “time kill kinetics, bacterial count” value (E. coli W3110; 8xMIC, 24 h) was 1.99, the “bactericidal activity” value (E. coli W3110; at higher concentrations) was “bactericidal” and the IC50 (P. aeruginosa gyrase) was 96 nM. For the same compound, the “CIP-mediated DNA cleavage” value (E. coli gyrase; 5 µM CIP) was “amount of cleaved DNA is reduced; also recorded: clear inhibition” and the “Ca2+-mediated DNA cleavage” value (E. coli gyrase; 5 mM Ca2+) was “amount of cleaved DNA is reduced; also recorded: strongly inhibited”.
